Where a name gives a salt, the structure may show the parent alone.
Experiments:
SW 480 = assay: Growth inhibition test (MTT) for cytotoxic properties; assay type: cell-based, human; details: Table 1a, glycoconjugates of batracyline
Protocol: (§1) Growth Inhibition Test for Determination of the Cytotoxic Properties of Glycoconjugates of Batracyline and of Quinolone-a
(§2) The human colon cell lines SW 480 and HT 29 (ATCC no. CCL 228 and HBT-38) and the mouse melanoma cell line B 16 F 10 were cultured in Roux dishes in RPMI 1640 medium with addition of 10% FCS. The cultures were then trypsinized and taken up in RPMI plus 10% FCS to a cell count of 50,000 cells/ml. 100 μl of cell suspension/well were introduced into a 96 microwell plate and incubated for 1 day at 37° C. in a CO2 incubating cabinet. A further 100 μl of RPMI medium and 1 μl of dimethyl sulphoxide with the test substances were then added. The growth was checked after day 3 and day 6. 40 μl of MTT solution (3-(4,5-dimethylthiazol-2-yl)-2,5-diphenyltetrazoline bromide) with an initial concentration of 5 mg/ml of H2 O were added to each microwave. The plate was incubated for 5 hours in a CO2 incubating cabinet at 37° C. The medium was then sucked off and 100 μl of i-propanol/well were added. After shaking for 30 minutes with 100 μl of H2 O, the extinction was measured at 540 nm with a Titertek Multiskan MCC/340 (Flow).
(§3) The cytotoxic action of the glycoconjugates of batracyline described is shown in Table 1a as the IC50 value in each case for the SW 480 and HT 29 cell lines.

HT 29 = assay: as above; assay type: cell-based, human; details: Table 1a, glycoconjugates of batracyline
Protocol: as §1, §2, §3

Row | Compound | IC50 (SW 480) | IC50 (HT 29)
1 | C[C@@H]1O[C@H](Oc2ccc(NC(=S)NCCCC[C@H](N)C(=O)N[C@H](C)C(=O)Nc3ccc4c(c3)CN3C(=O)c5ccccc5C3=N4)cc2)[C@@H](O)C[C@@H]1O [Example 3.7, N-{N^ε -[O-(3-Deoxy-β-L-fucosyl)-4-hydroxy-phenylamino-thiocarbonyl]-lysyl-D -alanyl}-batracyline, trifluoroacetate] | 55 µM | 
2 | CO[C@H]1[C@@H](O)[C@H](O)[C@@H](Oc2ccc(NC(=S)NCCCC[C@H](N)C(=O)N[C@H](C)C(=O)Nc3ccc4c(c3)Cn3c-4nc4ccccc4c3=O)cc2)O[C@H]1C [Example 3.11, N-{N^ε -[O-(4-O-Methyl-β-L-fucosyl)-4-hydroxy-phenylamino-thiocarbonyl]-lysyl-D-alanyl}-batracyline, acetate] | 85 µM | 
3 | CNC(=O)COC1C(O)C(CO)OC(Oc2ccc(NC(=S)NCCCCC(N)C(=O)NC(C)C(=O)Nc3ccc4nc5n(c(=O)c4c3)Cc3ccccc3-5)cc2)C1O [Example 3.20, N-{N^ε -[O-(3-O-(N-Methyl-carbamoylmethyl)-β-D-galactopyranosyl)-4-hydroxy-phenylamino-thiocarbonyl]-lysyl-D-alanyl}-batracyline, trifluoroacetate] | 100 µM | 
4 | CC(=O)OCC1OC(Oc2ccc(NC(=S)NCCCCC(N)C(=O)NC(C)C(=O)Nc3ccc4nc5n(c(=O)c4c3)Cc3ccccc3-5)cc2)C(O)C(O)C1O [Example 3.24, N-{N^ε -[O-(6-O-Acetyl-β-D-galactopyranosyl)-4-hydroxy-phenylamino-thiocarbonyl]-lysyl-D-alanyl}-batracyline, trifluoroacetate] | 95 µM | 
5 | COC1C(Oc2ccc(NC(=S)NCCCCC(N)C(=O)NC(C)C(=O)Nc3ccc4nc5n(c(=O)c4c3)Cc3ccccc3-5)cc2)OC(CO)C(O)C1OC [Example 3.27, N-{N^ε -[O-(2,3-Di-O-methyl-α-D-mannopyranosyl)-4-hydroxy-phenylamino-thiocarbonyl]-lysyl-D-alanyl}-batracyline, trifluoroacetate] | 110 µM | 
6 | CO[C@@H]1[C@@H](O)[C@H](Oc2ccc(NC(=S)N[C@@H](CCCCN)C(=O)N[C@H](C)C(=O)Nc3ccc4c(c3)CN3C(=O)c5ccccc5C3=N4)cc2)O[C@H](CO)[C@@H]1OC [Example 4.5, N-{N^α -[O-(3,4-Di-O-methyl-β-D-galactopyranosyl)-4-hydroxy-phenylamino-thiocarbonyl]-lysyl-D-alanyl}-batracyline] | 15 µM | 15 µM
7 | COC1C(O)C(C)OC(Oc2ccc(NC(=S)NCCCCC(NC(=S)Nc3ccc(OC4OC(C)C(O)C(OCC(=O)O)C4O)cc3)C(=O)NC(C)C(=O)Nc3ccc4nc5n(c(=O)c4c3)Cc3ccccc3-5)cc2)C1O [Example 5.1, N-{N^α -[O-(3-O-Carboxymethyl-β-L-fucosyl)-4-hydroxyphenylaminothiocarbonyl] -N^ε -[O-(3-O-methyl-β-L-fucosyl)-4-hydroxyphenylaminothiocarbonyl]-lysyl-D-alanyl}-batracyline] | 55 µM | 45 µM
8 | COC1C(C)OC(Oc2ccc(NC(=S)NCCCCC(NC(=S)Nc3ccc(OC4OC(C)C(OC)C(O)C4O)cc3)C(=O)NC(C)C(=O)Nc3ccc4nc5n(c(=O)c4c3)Cc3ccccc3-5)cc2)C(O)C1O [Example 6.3, N-{N^α,N^ε -Bis-[O-(4-O-methyl-β-L-fucosyl)-4-hydroxy-phenylamino-thiocarbonyl]-lysyl-D-alanyl}-batracyline] | 70 µM | 105 µM
9 | CC(NC(=O)C(CCCCNC(=S)Nc1ccc(OC2OC(CO)C(O)C(OCC(N)=O)C2O)cc1)NC(=S)Nc1ccc(OC2OC(CO)C(O)C(OCC(N)=O)C2O)cc1)C(=O)Nc1ccc2nc3n(c(=O)c2c1)Cc1ccccc1-3 [Example 6.82, N-{N^α,N^ε -Bis-[O-(3-O-carbamoylmethyl-β-D-galactopyranosyl)-4-hydroxy-phenylamino-thiocarbonyl]-lysyl-D-alanyl}-batracyline] | 125 µM | 
10 | CO[C@H]1[C@H](O)[C@@H](Oc2ccc(Nc3nc(NCCO)nc(NCCCC[C@H](N)C(=O)N[C@H](C)C(=O)Nc4ccc5c(=O)n6c(nc5c4)-c4ccccc4C6)n3)cc2)O[C@@H](C)[C@H]1O [Example 8.10, N-{N^ε -[4-Hydroxyethylamino-2-[O-(3-O-methyl-β-L-fucosyl)-4-hydroxy-phenylamino]-triazin-6-yl]-lysyl-D-alanyl}-batracyline, trifluoroacetate] | 70 µM | 
11 | CO[C@H]1[C@@H](O)[C@H](O)[C@@H](Oc2ccc(Nc3nc(NCCO)nc(NCCCC[C@H](N)C(=O)N[C@@H](C)C(=O)Nc4ccc5c(c4)CN4C(=O)c6ccccc6C4=N5)n3)cc2)O[C@H]1C [Example 8.12, N-{N^ε -[4-Hydroxyethylamino-2-[O-(4-O-methyl-β-L-fucosyl)-4-hydroxy-phenylamino]-triazin-6-yl]-lysyl-alanyl}-batracyline, trifluoroacetate] | 30 µM | 
12 | N-{N-[O-(β-L-Fucosyl)-4-hydroxy-phenylamino-thiocarbonyl]-glutamyl-D-a lanyl}-batracyline [Example 7.5] | 80 µM | 
13 | N-{N^α -[4-Hydroxyphenylamino-thiocarbonyl]-N^ε -[O-(4-O-methyl-β-L-fucosyl)-4-hydroxyphenylamino-thiocarbonyl]-lysyl -D-alanyl}-batracyline [Example 5.6] | > 250 µM | 
14 | N-{N^α,N^ε -Bis-[O-(3,4-O-dideoxy-β-D-galactopyranosyl)-4-hydroxy-phenylamino-th iocarbonyl]-lysyl-D-alanyl}-batracyline [Example 6.83] | 90 µM | 
15 | N-{N^α,N^ε -Bis-[O-(3,4-di-O-methyl-β-D-galactopyranosyl)-4-hydroxy-phenylamino- thiocarbonyl]-lysyl-alanyl}-batracyline [Example 6.85] | 22 µM | 
16 | N-{N^α,N^ε -Bis-[O-(3-O-carbamoylmethyl-β-D-galactopyranosyl)-4-hydroxy-phenylam ino-thiocarbonyl]-lysyl-seryl}-batracyline [Example 6.35] | 20 µM | 
17 | N-{N^α,N^ε -Bis-[O-(3-O-carboxymethyl-β-D-galactopyranosyl)-4-hydroxy-phenylamin o-thiocarbonyl]-lysyl-seryl}-batracyline, di-sodium salt [Example 6.34] | 50 µM | 
18 | N-{N^α,N^ε -Bis-[O-(3-O-carboxymethyl-β-L-fucosyl)-4-hydroxy-phenylamino-thiocar bonyl]-lysyl-diaminopropionyl}-batracyline, di-sodium salt [Example 6.21] | 150 µM | 
19 | N-{N^α,N^ε -Bis-[O-(3-O-methyl-β-L-fucosyl)-4-hydroxy-phenylamino-thiocarbonyl]- lysyl-diaminopropionyl}-batracyline [Example 6.20] | 80 µM | 
20 | N-{N^ε -[4-Hydroxyethylamino-2-[O-(2-O-methyl-β-L-fucosyl)-4-hydroxy-phenyla mino]-triazin-6-yl]-lysyl-alanyl}-batracyline, trifluoroacetate [Example 8.11] | 45 µM | 
21 | N-{N^ε -[-(3-O-Carbamoylmethyl-β-D-galactopyranosyl)-4-hydroxy-phenylamino-t hiocarbonyl]-lysyl-D-alanyl}-batracyline, trifluoroacetate [Example 3.19] | 75 µM | 
22 | N-{N^ε -[O-(3-O-(N-Propyl-carbamoylmethyl)-β-D-galactopyranosyl)-4-hydroxy-p henylamino-thiocarbonyl]-lysyl-D-alanyl}-batracyline, trifluoroacetate [Example 3.21] | 90 µM | 
23 | N-{N^ε -[O-(3-O-Carbamoylmethyl-α-D-mannopyranosyl)-4-hydroxy-phenylamino-t hiocarbonyl]-lysyl-D-alanyl}-batracyline, trifluoroacetate [Example 3.30] | > 250 µM | 
24 | N-{N^ε -[O-(3-O-Carboxymethyl-α-D-mannopyranosyl)-4-hydroxy-phenylamino-thi ocarbonyl]-lysyl-D-alanyl}-batracyline, trifluoroacetate [Example 3.29] | 110 µM | 
25 | N-{N^ε -[O-(3-O-Carboxymethyl-β-D-galactopyranosyl)-4-hydroxy-phenylamino-th iocarbonyl]-lysyl-D-alanyl}-batracyline, trifluoroacetate [Example 3.18] | 15 µM | 
26 | N-{N^ε -[O-(3-O-Methoxycarbonylmethyl-α-D-mannopyranosyl)-4-hydroxy-phenyla mino-thiocarbonyl]-lysyl-D-alanyl}-batracyline, trifluoroacetate [Example 3.28] | 60 µM | 
27 | N-{N^ε -[O-(3-O-Methyl-β-D-galactopyranosyl)-4-hydroxy-phenylamino-thiocarbo nyl]-lysyl-D-alanyl}-batracyline, trifluoroacetate [Example 3.14] | 40 µM | 
28 | N-{N^ε [O-(3-O-Methyl-α-D-mannopyranosyl)-4-hydroxy-phenylamino-thiocarbony l]-lysyl-D-alanyl}-batracyline, trifluoroacetate [Example 3.26] | 50 µM | 
29 | N-{N^ε-[O-( 3,4-Dideoxy-β-D-galactopyranosyl)-4-hydroxy-phenylamino-thiocarbonyl] -lysyl-D-alanyl}-batracyline, trifluoroacetate [Example 3.23] | 50 µM | 
